This note sets out measurements from patent EP4119138A1 (Universität Hamburg, priority 2021, dated 2023).

One data set in a line: in vitro. As to conditions: African green monkey.
Another data set in a line: S9 metabolism assay. It is filed as in vitro ADME, rat. The settings on record: for amide cleavage: hydrolysis study in S9 extract of rat liver, identified via LC-MS; for Metabolic stability [% remaining at 1h in rat S9 fraction]: test compound 100 µM, 37 °C. As for the experimental part:
Stock solutions of all test compounds (100 mM) were prepared in DMSO, stored at-20 °C and diluted in PB to 600 µM prior to the assay. Rat liver S9 fractions (SigmaAldrich, Lot # SLCC9026 and # SLCB2232) were combined, aliquoted (200 µL), stored at -80 °C and thawed to 0 °C before use. The reaction was performed in triplicates in eppendorf tubes with total volumes of 300 µL containing MgCl2 (5 mM), NADPH (5 mM), rat S9 fraction (1 mg) and the test compound (100 µM) in phosphate buffer (38.5 mM Na2HPO4, 11.5 mM KH2PO4, pH 7.3). 7-Ethoxycoumarin was assessed as reference inhibitor and a control without inhibitor but an equivalent amount of buffer instead was run. The ice cooled S9 fraction was added to a solution of MgCl2 and NADPH in PB and the resulting mixture was preincubated for 10 minutes at 37 °C in a shaker. Subsequently the reaction was started by addition of the test compound (50 µL), followed by threefold pipetting. After 0 h, 1 h and 3 h, samples of 50 µL were taken from the reaction, mixed with 150 µL ice-cooled methanol and centrifuged at 14000 rpm and 4 °C for 15 minutes. The supernatant was filtered with a syringe fiter, immediately quantified on HPLC and stored at -20 °C until LC/MS analysis.

For the next data set, the system named is EBOV Mayinga. Description: microbe, parasite or virus in culture. It is filed as cell-based, Ebola virus. The settings on record: Zaire ebolavirus, Vero, 96 h.
The test system of data set [1] is human PBMCs (CD4/CD8 T cells). The data set is described as follows: Lymphocyte inhibition, Cytostim-stimulated PBMCs, flow cytometry. It is filed as cell-based. The settings on record: T-cell stimulation by Cytostim, read-out: IC50 for CD4 and CD8 replication. The protocol: Lymphocyte inhibition was determined by using human PBMCs (peripheral blood mononuclear cells) as cell culture. The inhibitor compound was added at 8 different concentrations with each determination in triplicate and one control without inhibitor. T-cell stimulation was done by Cytostim, a reagent that binds T-cell receptors to MHC molecules of the antigen-presenting cells in an antibody-based manner and enables T-cell stimulation. Quantification was achieved by a flow cytometry-based method (Facs analysis) with staining of PBMCs with eFluor670 (eBioscience(TM)). The PBMCs are assigned to their populations (CD4/CD8 T cells) by use of other markers.
Background: A flow cytometer gives signals particle by particle.

The next data set concerns LASV Ba366. Description: microbe, parasite or virus in culture. It is filed as cell-based, Lassa virus. As to conditions: Mammarenavirus lassaense, Vero, 72 h.
Data set [2] in a line: Membrane permeability (PAMPA assay). It is filed as in vitro ADME. As to conditions: PBS pH 7.4, 5 h, 25 °C. The protocol:
Stock solutions of all test compounds (100 mM) were prepared in DMSO, stored at -20 °C and diluted with phosphate buffered saline (PBS, 137 mM NaCl, 2.7 mM KCl, 10 mM Na2HPO4, 2.0 mM KH2PO4, pH 7.4) to 200 µM prior to the experiment. The assay was performed in triplicates in a 96 well Corning Gentest Precoated PAMPA Plate System, which was stored at -20 °C and thawed to room temperature for 1 h prior to the assay. Wells of the donor plate were filled with 300 µL of the compound solutions (200 µM) and 200 µL PBS were added to the wells of the receiver plate. Two controls without inhibitor but an equivalent amount of buffer instead was run. Bubble-free assembling of the two plates was followed by 5 h incubation at 25 °C. Finally, the plates were carefully separated from each other. 150 µL of each well of both plates were transferred to black 96-well FluoroNunc™ plates and quantified on fluorescence spectrophotometer (Berthold Technologies TriStar^2S LB942 Multimode Reader, ICE software). Membrane Permeabilities were calculated using the following equation: Ppampa = (−ln(1−(cacc (t))/(ceq)))/(Aperm ⋅((1)/(Vdon)+(1)/(Vacc))⋅t) [formula] wherein • Cacc(t) is the compound concentration in acceptor well at time t, • Aperm is the area of the membrane filter (0.3 cm^2), • Vdon is the donor well volume (0.3 mL), • Vacc is the acceptor well volume (0.2 mL) and • Ceq is the equilibrium concentration with ceq = (cdon (t)⋅Vdon + cacc (t)⋅Vacc)/(Vdon + Vacc) [formula] where cdon(t) is the compound concentration in donor well at time t.
A general note: In PAMPA a lipid-coated filter parts donor from acceptor wells.

A further data set relates to CCHFV Afg 09-2990. The data set is described as follows: microbe, parasite or virus in culture. The format is cell-based, Crimean-Congo hemorrhagic fever orthonairovirus. As to conditions: Orthonairovirus haemorrhagiae, Vero, 72 h.
Another data set deals with hDHODH (Homo sapiens, UniProt Q02127). Description: hDHODH enzyme assay (DCPIP absorption, initial velocities). The format is biochemical. The settings on record: for IC50: hDHODH inhibition, HsDHODH29-396 35 nM, 25 °C. As for the experimental part: Expression and purification of the enzyme was carried out following the protocol of DAS et al. (SAR-Based Optimization of a 4-Quinoline Carboxylic Acid Analogue with Potent Antiviral Activity. ACS Med. Chem. Lett. 2013, 4, 517-521). The prepared enzyme stock solution (325 µM) was thawed to 0 °C and carefully diluted to 87.5 nM with ice-cooled Tris-HCl buffer (50 mM Tris-HCl, 0.1 % Triton X-100, pH 8.0)). Stock solutions of all test compounds (100 mM), L-DHO (250 mM) and CoQ1 (250 mM) were prepared in DMSO, stored at -20 °C and thawed to room temperature before use. The reaction was performed in triplicates in a 96 well plate with total volumes of 200 µL containing L-dihydroorotate (L-DHO; 0.10 mM), coenzyme Q1 (CoQ1; 25 µM), 2,6-dichlorophenolindophenol (DCPIP; 60 µM), HsDHODH29-396 (35 nM) and the test compound (varying concentrations) in Tris-HCl buffer.
Chain of hDHODH (Q02127 29-395 limits assumed): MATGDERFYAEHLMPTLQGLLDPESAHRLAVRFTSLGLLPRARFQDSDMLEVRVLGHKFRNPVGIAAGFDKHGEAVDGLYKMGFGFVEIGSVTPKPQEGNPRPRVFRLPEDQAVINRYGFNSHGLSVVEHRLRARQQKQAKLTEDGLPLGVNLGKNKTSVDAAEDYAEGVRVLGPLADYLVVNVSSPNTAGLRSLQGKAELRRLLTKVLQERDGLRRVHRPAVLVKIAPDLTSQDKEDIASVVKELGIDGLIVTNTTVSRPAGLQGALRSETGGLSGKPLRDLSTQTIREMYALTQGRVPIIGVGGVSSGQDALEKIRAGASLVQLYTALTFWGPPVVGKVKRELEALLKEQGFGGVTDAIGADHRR
The compound stock solutions were diluted in Tris-HCl buffer to give nine different concentrations and each sample was treated with a freshly prepared substrate mixture containing L-DHO, CoQ1 and DCPIP. By simultaneous addition of 80 µL ice-cooled enzyme solution ([…]) per well and immediate mixing by thorough pipetting, the reaction was started. The absorption of the mixture was monitored using a spectrophotometer (Berthold Technologies TriStar2S LB942 Multimode Reader, ICE software) with one data point per 10 seconds at an excitation wavelength of 600 nm and a temperature of 25 °C. During the first 200 s from enzyme addition, linear initial enzyme velocites were recorded, from which the IC50 values were calculated by non-linear fitting (Origin software) to the following equation: v = (V0)/(1 + (c)/(IC50)) [formula] wherein • v is the determined initial, linear enzyme velocity, • V0 is the calculated enzyme velocity without test compound and • c is the concentration of added test compound.

A short description of data set [3]: Octanol-water partition coefficient (logD). The format is physicochemical. The settings on record: PBS pH 7.4 / octanol, 25 °C; read-out: Log D (PBS pH 7.4/ octanol). The protocol:
Octanol and phosphate buffered saline (PBS, 137 mM NaCl, 2.7 mM KCl, 10 mM Na2HPO4, 2.0 mM KH2PO4, pH 7.4) were saturated with each other prior to the experiment. Stock solutions of all test compounds (100 mM) were prepared in DMSO, stored at - 20 °C and diluted with the saturated PBS to 100 µM prior to the experiment. The experiment was performed in duplicates in 2 mL HPLC-vials. 300 µL of the test compound solution (100 µM) was overlayered with 300 µL saturated octanol. The emulsions were vortexed for 1 min and shaken for 1 h at 180 rpm and 25 °C. After phase separation, the aqueous phases and the initial 100 µM compound solution were quantified on HPLC.

One may read the IC50 as the concentration at which inhibition is half-maximal. Usually Papp stands for a coefficient for how fast a substance crosses the barrier. In “in vitro”, `CCC(C)(C)c1cccc2cc(CNC(=O)Nc3ccccc3C(=O)O)oc12` [Example 1] had a CC50 greater than 1000 nM. Also, the amide cleavage result in the data set “S9 metabolism assay” is reported as “no amide cleavage”. Further, in “S9 metabolism assay”, the “Metabolic stability [% remaining at 1h in rat S9 fraction]” value is reported as 68.2%. Besides, the IC50 is 14 nM in the data set on EBOV Mayinga; roughly 150 nM in [1]; 35 nM with LASV Ba366; 100 nM in the data set with CCHFV Afg 09-2990; 9.2 nM against hDHODH. The Papp at 5 h, 200 µM in data set [2] amounted to 5.74 ×10⁻⁶ cm/s. Moreover, the logD in [3] stood at 2.98.
`O=C(Nc1cnccc1C(=O)O)Nc1cccc2ccccc12` [Example 18]: in the data set “S9 metabolism assay”, the amide cleavage result was “did not show amide cleavage” and the “Metabolic stability [% remaining at 1h in rat S9 fraction]” value was determined as 89.6%. This molecule came in with a Papp at 5 h, 200 µM in [2] of 6.84 ×10⁻⁶ cm/s. In addition, the “percentual inhibition of hDHODH” value on hDHODH (at a 1 µM concentration) was determined as 91%. In addition, the IC50 against hDHODH came to 81 nM. Besides, the logD in [3] came to 0.32.
For `CCC(=O)Nc1ccc(C#Cc2ccc(N3CCOCC3)cc2)cc1C(=O)O` [Example 4], the figures for the IC50 in the data set with LASV Ba366 and against hDHODH were 600 nM and 50 nM, respectively.
At hDHODH, `O=C(NCc1cc2cc(F)cc(C(F)(F)F)c2o1)Nc1ccccc1C(=O)O` [Example 3] displayed a half-maximal inhibitory concentration (IC50) of roughly 230 nM.
As to `CCC(C)c1ccccc1OCCCC(=O)Nc1ccccc1C(=O)O` (centres unmarked) [reference compound], the amide cleavage entry in the data set “S9 metabolism assay” is recorded as “showed a cleavage of the amide bond”.
As for `O=C(NCc1cc2cccc(C(F)(F)F)c2o1)Nc1ccccc1C(=O)O` [Example 2, 2-(3-((7-(trifluoromethyl)benzofuran-2-yl)methyl)ureido)benzoic acid], in the data set “S9 metabolism assay”, the amide cleavage result was “no amide cleavage” and the “Metabolic stability [% remaining at 1h in rat S9 fraction]” value is listed as 92.0%. In the data set with LASV Ba366, this molecule returned a half-maximal inhibitory concentration (IC50) of 1000 nM. For the same molecule, in data set [2], the Papp at 5 h, 200 µM came to 3.23 ×10⁻⁶ cm/s. Besides, it took 90.7 nM to reach half-maximal inhibition on hDHODH (IC50). Also, the logD in data set [3] is 1.96.
